We go through two compounds from US20240390282A1, “DRUG-LOADED LIPOSOMES AND USES THEREOF IN TREATING BIOFILM” (Yeda Research and Development Co. Ltd., priority 2022, published 2024).

The conditions of series [1]: cited from earlier work.
Another series concerns PA14-biofilms. Nature of the series: Bacterial viability in biofilms by LIVE/DEAD staining. Format: cell-based, Pseudomonas aeruginosa. As to conditions: PA14 biofilm; free SMX 1.5 mg/mL. As for the experimental part: Determination of bacterial viability in biofilms by LIVE/DEAD™ staining: PA14-biofilms were developed on 8 Well p-Slide (ibidi GmbH, Germany). 150 μL of the inoculum was incubated in a humidified incubator for 24 hours at 37° C. without shaking. After 24 hours, the fully formed biofilm was gently washed twice with PBS. 160 μL of liposomal suspension or BM2G medium was added to each well, and subsequently, the samples were incubated at 37° C. for 4 hours. Each well was then washed with PBS, and a second dose (170 μL) of antibacterial treatment was applied for 4 hours with incubation at 37° C. Subsequently, biofilm was washed with 180 μL of PBS buffer, and bacteria cells were stained using a BacLight™ Bacterial Viability Kit@ (Thermo Fisher Scientific™, USA). Live bacterial cells were stained with SYTO™ 9 dye (ex: 486/em: 501) and dead cells were stained with propidium iodide (PI) dye (λEx: 535/λEm: 617), with dyes mixed in 1:1 ratio. […] Later, wells were washed twice with PBS, and images of biofilm were acquired using confocal fluorescence microscopy. Cell viability quantification was performed using ImageJ software v1.52i (NIH, USA). Confocal pictures were acquired using a confocal laser scanning fluorescence microscope LSM700 (ZEISS, Germany). […] Images were recorded in brightfield mode and in confocal mode using 488 excitation and 561 excitation laser channels. […]

In general, pKa refers to the pH at which an ionisable group is half protonated. For `O=c1oc2c(O)c(O)cc3c(=O)oc4c(O)c(O)cc1c4c23` [Ellagic acid (EA), Ellagic acid], in series [1], the LogP is reported as 1.59-2.32 and the pKa was 5.8.

Take `Cc1cc(NS(=O)(=O)c2ccc(N)cc2)no1` [Sulfamethoxazole (SMX), Sulfamethoxazole]: the “dead cells (red loci) in words” value in the series with PA14-biofilms is reported as “significant increase in the number of red loci”.
